Results reported in ChEMBL document CHEMBL3885881, “DrugMatrix”.

Species: Rattus norvegicus
Assay: DrugMatrix - Regimen: Daily Repeat
Assay type: toxicity, organism-based, Sprague-Dawley
Set-up: regimen Daily Repeat, gender Male, age 6-8 weeks
Conditions: in vivo, po, 20 mg/kg, route oral GAVAGE, dose level Low, vehicle .5 % CMC; for ABSOLUTE BASOPHIL / ABSOLUTE EOSINOPHIL / ABSOLUTE LYMPHOCYTE / ABSOLUTE MONOCYTE / ABSOLUTE SEGMENTED NEUTROPHIL / BASOPHIL / EOSINOPHIL / ERYTHROCYTE COUNT / HEMATOCRIT / HEMOGLOBIN / LEUKOCYTE COUNT / LYMPHOCYTE / MEAN CORPUSCULAR HEMOGLOBIN / MEAN CORPUSCULAR HEMOGLOBIN CONCENTRATION / MEAN CORPUSCULAR VOLUME / MONOCYTE / NEUTROPHIL / NUCLEATED RED BLOOD CELLS / PLATELET COUNT: tissue Blood; for ALANINE AMINOTRANSFERASE / ALBUMIN / ALKALINE PHOSPHATASE / ASPARTATE AMINOTRANSFERASE / BLOOD UREA NITROGEN / CARBON DIOXIDE / CHLORIDE / CHOLESTEROL / CREATINE PHOSPHOKINASE / CREATININE / GLUCOSE / LACTATE DEHYDROGENASE / LIPASE / PHOSPHORUS / POTASSIUM / SODIUM / TOTAL BILIRUBIN / TOTAL PROTEIN / URIC ACID: tissue Plasma

## CCCCCCNC(=O)n1cc(F)c(=O)[nH]c1=O [CARMOFUR]
72 h, time 3 day
  ABSOLUTE BASOPHIL: 0 CELLS/uL
  ABSOLUTE EOSINOPHIL: 56 CELLS/uL
  ABSOLUTE LYMPHOCYTE: 15579 CELLS/uL
  ABSOLUTE MONOCYTE: 284.33 CELLS/uL
  ABSOLUTE SEGMENTED NEUTROPHIL: 1314 CELLS/uL
  BASOPHIL: 0%
  EOSINOPHIL: 0.33%
  ERYTHROCYTE COUNT: 5.63 x10E6/uL
  HEMATOCRIT: 35.8%
  HEMOGLOBIN: 14.23 G/DL
  LEUKOCYTE COUNT: 17.23 x10E3/uL
  LYMPHOCYTE: 90.33%
  MEAN CORPUSCULAR HEMOGLOBIN: 25.27 pg
  MEAN CORPUSCULAR HEMOGLOBIN CONCENTRATION: 39.8 G/DL
  MEAN CORPUSCULAR VOLUME: 63.6 fL
  MONOCYTE: 1.67%
  NEUTROPHIL: 7.67%
  NUCLEATED RED BLOOD CELLS: 0 /100WBC
  PLATELET COUNT: 1328 x10E3/uL
  ALANINE AMINOTRANSFERASE: 51 u/L
  ALBUMIN: 4.43 G/DL
  ALKALINE PHOSPHATASE: 409 u/L
  ASPARTATE AMINOTRANSFERASE: 85.67 u/L
  BLOOD UREA NITROGEN: 13 mg/dL
  CARBON DIOXIDE: 22.67 mmol/L
  CHLORIDE: 103.67 MEQ/L
  CHOLESTEROL: 70.67 mg/dL
  CREATINE PHOSPHOKINASE: 301.67 u/L
  CREATININE: 0.18 mg/dL
  GLUCOSE: 161 mg/dL
  LACTATE DEHYDROGENASE: 305.33 u/L
  LIPASE: 9 u/L
  PHOSPHORUS: 12.3 mg/dL
  POTASSIUM: 6.94 MEQ/L
  SODIUM: 146.4 MEQ/L
  TOTAL BILIRUBIN: 0.17 mg/dL
  TOTAL PROTEIN: 6.13 G/DL
  URIC ACID: 1.63 mg/dL
120 h, time 5 day
  ABSOLUTE BASOPHIL: 0 CELLS/uL
  ABSOLUTE EOSINOPHIL: 222.67 CELLS/uL
  ABSOLUTE LYMPHOCYTE: 15078.33 CELLS/uL
  ABSOLUTE MONOCYTE: 213.33 CELLS/uL
  ABSOLUTE SEGMENTED NEUTROPHIL: 719 CELLS/uL
  BASOPHIL: 0%
  EOSINOPHIL: 1.33%
  ERYTHROCYTE COUNT: 5.39 x10E6/uL
  HEMATOCRIT: 34.47%
  HEMOGLOBIN: 13.83 G/DL
  LEUKOCYTE COUNT: 16.23 x10E3/uL
  LYMPHOCYTE: 93%
  MEAN CORPUSCULAR HEMOGLOBIN: 25.67 pg
  MEAN CORPUSCULAR HEMOGLOBIN CONCENTRATION: 40.1 G/DL
  MEAN CORPUSCULAR VOLUME: 64 fL
  MONOCYTE: 1.33%
  NEUTROPHIL: 4.33%
  NUCLEATED RED BLOOD CELLS: 0 /100WBC
  PLATELET COUNT: 1330.33 x10E3/uL
  ALANINE AMINOTRANSFERASE: 47.67 u/L
  ALBUMIN: 4.3 G/DL
  ALKALINE PHOSPHATASE: 311 u/L
  ASPARTATE AMINOTRANSFERASE: 74.33 u/L
  BLOOD UREA NITROGEN: 14 mg/dL
  CARBON DIOXIDE: 23 mmol/L
  CHLORIDE: 103.33 MEQ/L
  CHOLESTEROL: 73.33 mg/dL
  CREATINE PHOSPHOKINASE: 245.33 u/L
  CREATININE: 0.12 mg/dL
  GLUCOSE: 149 mg/dL
  LACTATE DEHYDROGENASE: 124.33 u/L
  LIPASE: 8 u/L
  PHOSPHORUS: 12.67 mg/dL
  POTASSIUM: 6.45 MEQ/L
  SODIUM: 145.27 MEQ/L
  TOTAL BILIRUBIN: 0.23 mg/dL
  TOTAL PROTEIN: 6.07 G/DL
  URIC ACID: 1.57 mg/dL
